Laboratory results from paper PMC12751012, “Nanoscale Direct-to-Biology Optimization and Structural Insights into Selective S. aureus TrmD Inhibitors” (Journal of Medicinal Chemistry, 2025).
“Also recorded” adds a separate entry of the source. Read-outs that look alike come from different tables or passages of the source.

Tests used:
human Trm5 = target: T1, human Trm5 (Homo sapiens, UniProt Q32P41); assay: 3H-based MTase enzyme inhibition assay, Trm5; format: biochemical; settings: 3H-based enzyme assay, screened at 30 μM
T1 construct: a truncated construct of Trm5 (aa 66–475), with flexible termini omitted; made in house; host or cells: E. coli Rosetta2 (DE3)
T1 sequence (Q32P41 66-475): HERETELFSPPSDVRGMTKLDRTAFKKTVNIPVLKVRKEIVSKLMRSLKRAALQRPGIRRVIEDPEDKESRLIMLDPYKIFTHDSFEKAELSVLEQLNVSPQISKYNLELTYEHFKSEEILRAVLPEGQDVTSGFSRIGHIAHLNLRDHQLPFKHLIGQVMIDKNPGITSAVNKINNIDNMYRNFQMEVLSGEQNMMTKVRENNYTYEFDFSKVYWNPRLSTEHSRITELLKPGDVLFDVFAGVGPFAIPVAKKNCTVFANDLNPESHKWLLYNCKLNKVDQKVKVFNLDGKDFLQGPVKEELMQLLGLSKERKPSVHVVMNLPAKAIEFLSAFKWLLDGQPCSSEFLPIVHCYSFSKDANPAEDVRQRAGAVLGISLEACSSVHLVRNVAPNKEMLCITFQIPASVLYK
Description: ^3H-based inhibition assays for TrmD S. aureus were performed in 50 mM HEPES, 5 mM MgCl2, 80 mM NaCl, 0.005% Tween-20, 1 mM DTT, pH 7.5 buffer; and for Trm5 in 100 mM Tris-HCl, 0.1 mM EDTA, 6 mM MgCl2, 100 mM KCl, 2 mM DTT, pH 7.4. The reaction mixture contained for S. aureus TrmD: 1 μM synthetic tRNA^Leu (Genscript, see above) and 100 nM S. aureus TrmD; For human Trm5:10 μM synthetic tRNA^Leu and 1.5 μM Trm5. Compounds were screened for S. aureus TrmD at 1 μM and for Trm5 at 30 μM. The enzymatic reactions were started by the addition of SAM as a mixture of ^3H-SAM (Hartmann Analytics, S. aureus TrmD: 0.5 μM, Trm5: 2 μM) and cold SAM (New England Biolabs, S. aureus TrmD: 0.5 μM, Trm5: 98 μM) to a final activity of 0.04 μCi μL^–1 (TrmD) or 0.16 μCi μL^–1 (Trm5). The reaction mixtures were incubated in duplicate for 60 min (TrmD)/30 min (Trm5) at 37 °C. As a negative control, the reaction mixture without the enzyme was used, and as a positive control, the reaction mixture without the test compound was used. After the enzyme incubation time, aliquots of 8 μL were taken from the reaction mixture and spotted on Whatman glass microfiber filters (GF/C, 25 mm). The tRNA was precipitated on the filters with 5% ice-cold TCA for 15 min. The filters were washed twice with 5% TCA at room temperature for 20 and 10 min, and once in EtOH for 10 min. After drying, the filters were transferred into scintillation vials with 3 mL of PerkinElmer Gold MV liquid scintillation cocktail. Scintillation was measured with a scintillation counter (TriCarb Liquid Scintillation Analyzer 4810TR; measurement time of 1 min).

E. coli ATCC10536 = assay: Bacterial growth inhibition assay, E. coli ATCC10536; format: cell-based, Escherichia coli; settings: for effect on E. coli growth: up to 100 μM, growth curves
Description: (§1) Compounds were dissolved in DMSO to a final concentration of 20 mM. To determine the compound’s activity against different bacteria, a bacterial culture (E. coli ATCC10536, S. aureus RN4220) was set up to an optical density at 600 nm (OD600) of 0.05 from an overnight culture in Mueller-Hinton broth (Carl Roth). The compound was added in different concentrations ranging from […] to 1 μM. DMSO concentration was constantly adjusted to be 1% in the final culture. Cultures of 200 μL were incubated for 24 h at 37 °C in flat-bottom 96-well polystyrene culture plates (Greiner) using a BioTek Synergy H1 plate reader. Plates were incubated under constant shaking, and absorbance at 600 nm was measured every 20 min. The experiment was performed in three biological replicates with three technical replicates each.

S. aureus TrmD = target: T2, S. aureus TrmD (Staphylococcus aureus, UniProt Q2FZ43); assay: Fluorescence polarization (FP) assay, tracer 4, S. aureus TrmD; format: binding
T2 construct: made in house; host or cells: E. coli BL21
T2 sequence (Q2FZ43 1-245): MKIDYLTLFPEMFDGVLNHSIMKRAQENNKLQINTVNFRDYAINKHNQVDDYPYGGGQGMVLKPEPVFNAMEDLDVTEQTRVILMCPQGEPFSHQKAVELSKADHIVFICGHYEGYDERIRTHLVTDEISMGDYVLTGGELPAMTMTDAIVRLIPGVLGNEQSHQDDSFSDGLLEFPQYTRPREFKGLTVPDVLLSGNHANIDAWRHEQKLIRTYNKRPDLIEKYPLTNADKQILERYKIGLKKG
Description: To enable the screening of hundreds of nanomole-scale synthesized compounds, the implementation of a high-throughput-capable RNA methyltransferase (MTase) assay is considered fundamental. […] In this assay format, a fluorescent, SAM-pocket binding tracer can be displaced by the compound under investigation, and the resulting change in fluorescence polarization defines the read-out of the inhibitor compound’s affinity (Figure A).
Fluorescence polarization (FP) assays were performed as follows. The assays for H. influenzae TrmD have been described previously. All assays were conducted in technical triplicate using black 96-well half area plates. For the FP assays, a tracer (20 nM Cy5TPD for E. coli and H. influenzae TrmD, 10 nM tracer 4 for S. aureus TrmD) was mixed with the respective enzyme (2 μM E. coli TrmD, 2 μM H. influenzae TrmD, 500 nM S. aureus TrmD) in buffer (E. coli and H. influenzae TrmD: 50 mM HEPES, 500 mM NaCl, 5% Glycerol, pH 7.5, S. aureus TrmD: 40 mM Tris HCl, 100 mM NaCl, 10 mM MgCl2, 5% Glycerol, pH 7.5). The compounds were added in varying concentrations for K D-value determination. […] The Z-factor for tracer 4 was determined by measuring 48 replicates of the free tracer (positive controls, PC) and 48 replicates of a mixture of enzyme and tracer (negative controls, NC). The Z-factor is defined in terms of the means (μ) and standard deviations (σ) of the positive and negative controls and calculated as Z = 1–(3*(σnc + σpc)/(μnc–μpc)). […] Polarization values (mP) were determined from polarization-specific parallel and orthogonal fluorescence intensities. K D-values were calculated in GraphPad Prism 8.0.1 using the four-parameter Hill equation: y(% tracer bound) = bottom + ([ligand]-slope) × (top–bottom)/([ligand]-slope + K Dslope).

S. aureus RN4220 = assay: Bacterial growth inhibition assay, S. aureus RN4220; format: cell-based, Staphylococcus aureus; settings: for effect on S. aureus RN4220 growth: 1, 10 and 100 μM, 24 h growth curves; for MIC: Staphylococcus aureus, read-out: MIC S. aureus
Description: as §1

[1] = apparent affinity, purified compound, 500 nM TrmD, 10 nM tracer 4, read-out: KD S. aureus TrmD (FP displacement assay)

SMILES	IC50 (human Trm5)	effect on E. coli growth (E. coli ATCC10536)	Kd (S. aureus TrmD; [1])	effect on S. aureus RN4220 growth (S. aureus RN4220)	MIC (S. aureus RN4220; RN4220, 24 h)	MIC (S. aureus RN4220; RN4220, 24 h (1440 min))	Kd (S. aureus TrmD; chromatographically purified compound, read-out: KD S. aureus TrmD (FP displacement assay))	E. coli growth rate (E. coli ATCC10536; highest concentration (100 μM))	S. aureus TrmD binding (FP) (S. aureus TrmD; up to 100 μM)	Kd (S. aureus TrmD; KD S. aureus TrmD (FP displacement assay), apparent affinity, purified compound, 500 nM TrmD, 10 nM tracer 4)
N#Cc1cccc(Cn2cc(-c3c[nH]c4nc[nH]c(=O)c34)nn2)c1 [Compound 8b, 3-((4-(4-Oxo-4,7-dihydro-3H-pyrrolo[2,3-d]pyrimidin-5-yl)-1H-1,2,3-triazol-1-yl)methyl)benzonitrile]	> 30000 nM	no pronounced effect on growth	1820 ± 130 nM	no pronounced effect on growth	> 100 µM					
O=c1[nH]cnc2[nH]cc(-c3cn(CC4CCC5C(CC4)C5(F)F)nn3)c12 (stereo not shown) [Compound 8c, 5-(1-((8,8-Difluorobicyclo[5.1.0]octan-4-yl)methyl)-1H-1,2,3-triazol-4-yl)-3,7-dihydro-4H-pyrrolo[2,3-d]pyrimidin-4-one]	> 30000 nM	no pronounced effect on growth	1050 ± 110 nM	no pronounced effect on growth		> 100 µM				
O=c1[nH]cnc2[nH]cc(-c3cn(Cc4ccc5ncccc5c4)nn3)c12 [Compound 8d, 5-(1-(Quinolin-6-ylmethyl)-1H-1,2,3-triazol-4-yl)-3,7-dihydro-4H-pyrrolo[2,3-d]pyrimidin-4-one]	> 30000 nM	no pronounced effect on growth	720 ± 70 nM	no pronounced effect on growth		> 100 µM	725 ± 75 nM			
N[C@@H]1CCC[C@@H]1Cn1cc(-c2c[nH]c3nc[nH]c(=O)c23)nn1 [Compound 8e, 5-(1-(((1R,2R)-2-Aminocyclopentyl)methyl)-1H-1,2,3-triazol-4-yl)-3,7-dihydro-4H-pyrrolo[2,3-d]pyrimidin-4-one]	> 30000 nM	no pronounced effect on growth	1620 ± 240 nM	no pronounced effect on growth		> 100 µM				
O=C(/N=C(\NCCn1cc(-c2c[nH]c3nc[nH]c(=O)c23)nn1)NC(=O)OCc1ccccc1)OCc1ccccc1 [Compound 8f]	> 30000 nM	no significant growth inhibition	> 100000 nM	significant reduction in S. aureus growth; also recorded: significant effect on S. aureus bacteria in lower concentrations		12.5 µM		slight increase	no S. aureus TrmD binding	
CC(C)(C)OC(=O)/N=C(\NCCn1cc(-c2c[nH]c3nc[nH]c(=O)c23)nn1)NC(=O)OC(C)(C)C [Compound 8g]	> 30000 nM	no significant growth inhibition	19800 nM			> 100 µM				
NC(N)=NCCn1cc(-c2c[nH]c3nc[nH]c(=O)c23)nn1 [Compound 8h]	> 30000 nM									2480 ± 210 nM
